Assay results published in ChEMBL document CHEMBL5215008, “Bioactive Arylnaphthalide Lignans from Justicia depauperata” (J Nat Prod, 2022).
≈ marks a conversion by molar mass, not a printed value.

test system: KB 3-1; assay: Cytotoxicity against human KB 3-1 cells assessed as reduction in cell viability; type: functional, cell-based

Compound	IC50
COC(=O)c1cc2ccc3c(c2c2c1C(=O)c1cc(O)c(O)cc1-2)OCO3	9.5 µM
COC1OC(=O)c2cc3ccc4c(c3c(-c3ccc(O)c(O)c3)c21)OCO4 (stereo not drawn)	4.1 µM
COc1ccc(C[C@H]2NC(=O)/C=C/C[C@@H]([C@H](C)[C@H]3O[C@@H]3c3ccccc3)OC(=O)[C@H](CC(C)C)OC(=O)C(C)(C)CNC2=O)cc1Cl [CRYPTOPHYCIN 52]	1.3e-05 µM

test system: not listed separately; assay: Antioxidant activity assessed as inhibition of ABTS radical scavenging activity measured upto 6 mins; type: functional

Compound	IC50
Cc1c(C)c2c(c(C)c1O)CCC(C)(C(=O)O)O2 (stereo not drawn) [TROLOX]	68 µM
COC(=O)c1cc2ccc3c(c2c2c1C(=O)c1cc(O)c(O)cc1-2)OCO3	84.5 µM
COc1cc([C@@H](O)[C@@H]2CO[C@H](c3ccc(O)c(OC)c3)[C@H]2CO)ccc1O [TANEGOOL]	41.2 µM

test system: Salmonella typhi; assay: Antibacterial activity against Salmonella enterica subsp. enterica serovar Typhi CPC assessed as bacterial growth inhibition incubated overnight by broth microdilution assay; type: functional

Compound	MIC
C=CCOC(=O)c1cc2ccc3c(c2c(-c2ccc4c(c2)OCO4)c1C=O)OCO3	500 µg/mL (≈ 1240 µM)
CCCCOC1OC(=O)c2cc3ccc4c(c3c(-c3ccc5c(c3)OCO5)c21)OCO4 (stereo not drawn)	500 µg/mL (≈ 1190 µM)
COc1cc([C@@H](O)[C@@H]2CO[C@H](c3ccc(O)c(OC)c3)[C@H]2CO)ccc1O [TANEGOOL]	31.3 µg/mL (≈ 83.2 µM)
GENTAMICIN	0.05 µg/mL
COC1OC(=O)c2cc3ccc4c(c3c(-c3ccc(O)c(O)c3)c21)OCO4 (stereo not drawn)	31.3 µg/mL (≈ 85.4 µM)

test system: Salmonella enterica; assay: Antibacterial activity against Salmonella enterica NR13555 assessed as bacterial growth inhibition incubated overnight by broth microdilution assay; type: functional

Compound	MIC
COC(=O)c1cc2ccc3c(c2c2c1C(=O)c1cc(O)c(O)cc1-2)OCO3	250 µg/mL (≈ 686 µM)
COc1cc([C@@H](O)[C@@H]2CO[C@H](c3ccc(O)c(OC)c3)[C@H]2CO)ccc1O [TANEGOOL]	250 µg/mL (≈ 664 µM)
GENTAMICIN	0.07 µg/mL
COC1OC(=O)c2cc3ccc4c(c3c(-c3ccc(O)c(O)c3)c21)OCO4 (stereo not drawn)	62.5 µg/mL (≈ 171 µM)

test system: Staphylococcus aureus; assay: Antibacterial activity against Staphylococcus aureus ATCC43300 assessed as bacterial growth inhibition incubated overnight by broth microdilution assay; type: functional

Compound	MIC
C=CCOC(=O)c1cc2ccc3c(c2c(-c2ccc4c(c2)OCO4)c1C=O)OCO3	500 µg/mL (≈ 1240 µM)
CCCCOC1OC(=O)c2cc3ccc4c(c3c(-c3ccc5c(c3)OCO5)c21)OCO4 (stereo not drawn)	125 µg/mL (≈ 297 µM)
COc1cc([C@@H](O)[C@@H]2CO[C@H](c3ccc(O)c(OC)c3)[C@H]2CO)ccc1O [TANEGOOL]	125 µg/mL (≈ 332 µM)
GENTAMICIN	0.07 µg/mL
COC1OC(=O)c2cc3ccc4c(c3c(-c3ccc(O)c(O)c3)c21)OCO4 (stereo not drawn)	62.5 µg/mL (≈ 171 µM)

test system: Staphylococcus aureus; assay: Antibacterial activity against Staphylococcus aureus ATCC25923 assessed as bacterial growth inhibition incubated overnight by broth microdilution assay; type: functional

Compound	MIC
CCCCOC1OC(=O)c2cc3ccc4c(c3c(-c3ccc5c(c3)OCO5)c21)OCO4 (stereo not drawn)	500 µg/mL (≈ 1190 µM)
COc1cc([C@@H](O)[C@@H]2CO[C@H](c3ccc(O)c(OC)c3)[C@H]2CO)ccc1O [TANEGOOL]	500 µg/mL (≈ 1330 µM)
GENTAMICIN	0.03 µg/mL
COC1OC(=O)c2cc3ccc4c(c3c(-c3ccc(O)c(O)c3)c21)OCO4 (stereo not drawn)	62.5 µg/mL (≈ 171 µM)

test system: Klebsiella pneumoniae; assay: Antibacterial activity against Klebsiella pneumoniae clinical isolate assessed as bacterial growth inhibition incubated overnight by broth microdilution assay; type: functional

Compound	MIC
C=CCOC(=O)c1cc2ccc3c(c2c(-c2ccc4c(c2)OCO4)c1C=O)OCO3	500 µg/mL (≈ 1240 µM)
CCCCOC1OC(=O)c2cc3ccc4c(c3c(-c3ccc5c(c3)OCO5)c21)OCO4 (stereo not drawn)	500 µg/mL (≈ 1190 µM)
COc1cc([C@@H](O)[C@@H]2CO[C@H](c3ccc(O)c(OC)c3)[C@H]2CO)ccc1O [TANEGOOL]	62.5 µg/mL (≈ 166 µM)
GENTAMICIN	0.03 µg/mL
COC1OC(=O)c2cc3ccc4c(c3c(-c3ccc(O)c(O)c3)c21)OCO4 (stereo not drawn)	62.5 µg/mL (≈ 171 µM)

test system: Klebsiella pneumoniae; assay: Antibacterial activity against Klebsiella pneumoniae NR41388 assessed as bacterial growth inhibition incubated overnight by broth microdilution assay; type: functional

Compound	MIC
CCCCOC1OC(=O)c2cc3ccc4c(c3c(-c3ccc5c(c3)OCO5)c21)OCO4 (stereo not drawn)	500 µg/mL (≈ 1190 µM)
COc1cc([C@@H](O)[C@@H]2CO[C@H](c3ccc(O)c(OC)c3)[C@H]2CO)ccc1O [TANEGOOL]	500 µg/mL (≈ 1330 µM)
GENTAMICIN	0.07 µg/mL
COC1OC(=O)c2cc3ccc4c(c3c(-c3ccc(O)c(O)c3)c21)OCO4 (stereo not drawn)	62.5 µg/mL (≈ 171 µM)

test system: Pseudomonas aeruginosa; assay: Antibacterial activity against Pseudomonas aeruginosa HM801 assessed as bacterial growth inhibition incubated overnight by broth microdilution assay; type: functional

Compound	MIC
C=CCOC(=O)c1cc2ccc3c(c2c(-c2ccc4c(c2)OCO4)c1C=O)OCO3	125 µg/mL (≈ 309 µM)
CCCCOC1OC(=O)c2cc3ccc4c(c3c(-c3ccc5c(c3)OCO5)c21)OCO4 (stereo not drawn)	250 µg/mL (≈ 595 µM)
COc1cc([C@@H](O)[C@@H]2CO[C@H](c3ccc(O)c(OC)c3)[C@H]2CO)ccc1O [TANEGOOL]	15.6 µg/mL (≈ 41.4 µM)
GENTAMICIN	0.05 µg/mL
COC1OC(=O)c2cc3ccc4c(c3c(-c3ccc(O)c(O)c3)c21)OCO4 (stereo not drawn)	31.3 µg/mL (≈ 85.4 µM)
